Earlier results on 4 compounds are cited in US20220079880A1, “SOLID MICELLAR COMPOSITIONS OF CANNABINOID ACIDS” (priority 2019, published 2022).

Among the targets are COX-1 (Homo sapiens, UniProt P23219); TRPM8 (Homo sapiens, UniProt Q7Z2W7); GPR-55 (Homo sapiens, UniProt Q9Y2T6); TRPA1 (Homo sapiens, UniProt O75762); TRPV1′ (Homo sapiens, UniProt Q8NER1).
A further series deals with T1, COX-2 (Homo sapiens, UniProt P35354).
T1 sequence (P35354 18-604): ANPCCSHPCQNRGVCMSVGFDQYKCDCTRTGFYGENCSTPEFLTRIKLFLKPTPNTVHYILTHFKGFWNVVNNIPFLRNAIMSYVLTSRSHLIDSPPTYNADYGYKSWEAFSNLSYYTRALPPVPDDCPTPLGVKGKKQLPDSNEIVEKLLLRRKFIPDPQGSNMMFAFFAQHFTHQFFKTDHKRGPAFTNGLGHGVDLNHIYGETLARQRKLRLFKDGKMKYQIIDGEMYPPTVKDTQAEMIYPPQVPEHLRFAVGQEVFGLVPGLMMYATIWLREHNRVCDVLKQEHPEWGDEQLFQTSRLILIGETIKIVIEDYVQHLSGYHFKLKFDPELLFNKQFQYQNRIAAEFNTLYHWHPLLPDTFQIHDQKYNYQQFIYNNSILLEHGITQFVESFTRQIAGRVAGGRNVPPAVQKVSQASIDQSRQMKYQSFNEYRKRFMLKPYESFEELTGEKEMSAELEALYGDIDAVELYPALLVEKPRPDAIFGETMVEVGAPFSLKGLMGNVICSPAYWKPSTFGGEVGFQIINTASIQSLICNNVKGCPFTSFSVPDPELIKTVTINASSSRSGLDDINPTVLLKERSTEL

Series [1] concerns MBS model of epilepsy. The conditions noted are these: mice.
Another series has as its system seizures. The conditions noted are these: response = reduced seizure frequency of greater than 50%; surveys.
Series [2] concerns MBS model of epilepsy. The conditions noted are these: rats.
The conditions of series [3]: nano-size lipid-based systems.
The conditions of series [4]: receptor affinity and effect; purportedly.
In series [5] the test system is experimentally induced nausea. The following applies: rats; 5HT1A receptor-mediated.
A further series deals with T2, PPARγ (Homo sapiens, UniProt P37231).
T2 sequence (P37231 1-505): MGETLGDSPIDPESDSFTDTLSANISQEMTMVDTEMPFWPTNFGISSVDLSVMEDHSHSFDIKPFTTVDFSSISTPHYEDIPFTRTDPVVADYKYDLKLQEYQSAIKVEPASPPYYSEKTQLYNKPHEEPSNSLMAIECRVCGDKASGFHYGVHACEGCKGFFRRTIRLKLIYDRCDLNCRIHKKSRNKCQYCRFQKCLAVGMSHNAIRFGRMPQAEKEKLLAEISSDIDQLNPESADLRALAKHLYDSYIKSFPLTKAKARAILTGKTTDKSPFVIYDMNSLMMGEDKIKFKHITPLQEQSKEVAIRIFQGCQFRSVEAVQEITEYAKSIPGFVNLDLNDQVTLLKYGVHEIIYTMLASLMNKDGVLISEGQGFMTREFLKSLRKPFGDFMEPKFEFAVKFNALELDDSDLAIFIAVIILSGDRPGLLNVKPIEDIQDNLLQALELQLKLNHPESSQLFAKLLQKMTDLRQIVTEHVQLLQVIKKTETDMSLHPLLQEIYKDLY

For series [6], the system named is MDA-MB-231 human breast cancer cells.
The target in another series is T3, 5-HT1A receptors (Homo sapiens, UniProt P08908).
T3 sequence (P08908 1-422): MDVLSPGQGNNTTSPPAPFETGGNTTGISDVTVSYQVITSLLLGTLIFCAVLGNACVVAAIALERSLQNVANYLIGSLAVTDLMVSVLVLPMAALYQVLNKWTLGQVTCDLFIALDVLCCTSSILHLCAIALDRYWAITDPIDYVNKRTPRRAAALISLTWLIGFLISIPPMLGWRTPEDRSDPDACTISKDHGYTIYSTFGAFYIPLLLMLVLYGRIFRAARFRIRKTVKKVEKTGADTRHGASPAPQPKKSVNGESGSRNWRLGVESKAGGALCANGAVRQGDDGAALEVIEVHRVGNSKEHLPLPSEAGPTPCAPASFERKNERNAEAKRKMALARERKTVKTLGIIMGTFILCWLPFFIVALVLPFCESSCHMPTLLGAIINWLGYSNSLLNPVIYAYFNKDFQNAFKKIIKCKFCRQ

The next series has as its system prostate cancer cells. The conditions noted are these: animal studies.

Molecules are shown by their SMILES. Like-named read-outs stand apart in the source and are kept apart here.

Sequence of COX-1 (P23219 24-599): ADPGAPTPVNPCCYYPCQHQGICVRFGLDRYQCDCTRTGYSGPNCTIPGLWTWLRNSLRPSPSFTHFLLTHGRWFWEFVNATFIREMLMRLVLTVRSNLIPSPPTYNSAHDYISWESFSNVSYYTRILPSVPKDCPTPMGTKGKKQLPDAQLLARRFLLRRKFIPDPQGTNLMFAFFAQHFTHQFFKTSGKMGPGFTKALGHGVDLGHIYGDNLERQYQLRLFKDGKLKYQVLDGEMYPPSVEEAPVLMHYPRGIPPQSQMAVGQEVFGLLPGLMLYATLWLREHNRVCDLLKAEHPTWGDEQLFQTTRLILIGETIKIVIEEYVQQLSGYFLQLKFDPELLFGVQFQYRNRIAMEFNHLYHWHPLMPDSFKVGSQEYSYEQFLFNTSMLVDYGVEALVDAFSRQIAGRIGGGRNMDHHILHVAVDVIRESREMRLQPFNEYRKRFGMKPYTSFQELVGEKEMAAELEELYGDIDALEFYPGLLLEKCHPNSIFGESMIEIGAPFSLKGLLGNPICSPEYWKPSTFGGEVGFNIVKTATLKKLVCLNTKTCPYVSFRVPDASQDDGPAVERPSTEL
Sequence of TRPA1 (O75762 whole entry, species assumed): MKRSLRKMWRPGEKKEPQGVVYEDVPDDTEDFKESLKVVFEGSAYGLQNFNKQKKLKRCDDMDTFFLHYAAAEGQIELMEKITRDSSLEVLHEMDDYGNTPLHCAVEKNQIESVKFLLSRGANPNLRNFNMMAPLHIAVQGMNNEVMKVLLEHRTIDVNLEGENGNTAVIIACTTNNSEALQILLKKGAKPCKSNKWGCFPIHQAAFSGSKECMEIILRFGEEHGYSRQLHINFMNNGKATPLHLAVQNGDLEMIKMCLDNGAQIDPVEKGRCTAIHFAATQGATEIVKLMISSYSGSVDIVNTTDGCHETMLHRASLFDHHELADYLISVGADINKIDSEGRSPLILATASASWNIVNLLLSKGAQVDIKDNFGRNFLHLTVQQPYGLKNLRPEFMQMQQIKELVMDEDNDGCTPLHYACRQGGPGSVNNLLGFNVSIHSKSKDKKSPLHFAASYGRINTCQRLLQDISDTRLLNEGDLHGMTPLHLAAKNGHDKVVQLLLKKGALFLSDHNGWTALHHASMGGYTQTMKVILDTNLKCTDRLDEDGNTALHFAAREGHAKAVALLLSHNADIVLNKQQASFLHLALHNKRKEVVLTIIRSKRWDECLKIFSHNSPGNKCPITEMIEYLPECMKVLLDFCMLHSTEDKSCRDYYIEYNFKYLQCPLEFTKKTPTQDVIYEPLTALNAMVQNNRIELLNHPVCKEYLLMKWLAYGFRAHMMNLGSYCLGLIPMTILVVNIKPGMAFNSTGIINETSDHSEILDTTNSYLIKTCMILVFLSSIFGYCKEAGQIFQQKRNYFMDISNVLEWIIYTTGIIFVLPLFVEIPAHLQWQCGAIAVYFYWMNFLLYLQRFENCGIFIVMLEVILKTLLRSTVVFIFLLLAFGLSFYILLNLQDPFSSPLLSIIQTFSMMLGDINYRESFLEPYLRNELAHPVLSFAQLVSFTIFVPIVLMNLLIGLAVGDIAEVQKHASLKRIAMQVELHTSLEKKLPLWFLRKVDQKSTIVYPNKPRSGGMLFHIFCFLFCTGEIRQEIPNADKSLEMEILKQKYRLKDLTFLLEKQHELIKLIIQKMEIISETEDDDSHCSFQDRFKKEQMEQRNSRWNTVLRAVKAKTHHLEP
Sequence of TRPM8 (Q7Z2W7 whole entry, species assumed): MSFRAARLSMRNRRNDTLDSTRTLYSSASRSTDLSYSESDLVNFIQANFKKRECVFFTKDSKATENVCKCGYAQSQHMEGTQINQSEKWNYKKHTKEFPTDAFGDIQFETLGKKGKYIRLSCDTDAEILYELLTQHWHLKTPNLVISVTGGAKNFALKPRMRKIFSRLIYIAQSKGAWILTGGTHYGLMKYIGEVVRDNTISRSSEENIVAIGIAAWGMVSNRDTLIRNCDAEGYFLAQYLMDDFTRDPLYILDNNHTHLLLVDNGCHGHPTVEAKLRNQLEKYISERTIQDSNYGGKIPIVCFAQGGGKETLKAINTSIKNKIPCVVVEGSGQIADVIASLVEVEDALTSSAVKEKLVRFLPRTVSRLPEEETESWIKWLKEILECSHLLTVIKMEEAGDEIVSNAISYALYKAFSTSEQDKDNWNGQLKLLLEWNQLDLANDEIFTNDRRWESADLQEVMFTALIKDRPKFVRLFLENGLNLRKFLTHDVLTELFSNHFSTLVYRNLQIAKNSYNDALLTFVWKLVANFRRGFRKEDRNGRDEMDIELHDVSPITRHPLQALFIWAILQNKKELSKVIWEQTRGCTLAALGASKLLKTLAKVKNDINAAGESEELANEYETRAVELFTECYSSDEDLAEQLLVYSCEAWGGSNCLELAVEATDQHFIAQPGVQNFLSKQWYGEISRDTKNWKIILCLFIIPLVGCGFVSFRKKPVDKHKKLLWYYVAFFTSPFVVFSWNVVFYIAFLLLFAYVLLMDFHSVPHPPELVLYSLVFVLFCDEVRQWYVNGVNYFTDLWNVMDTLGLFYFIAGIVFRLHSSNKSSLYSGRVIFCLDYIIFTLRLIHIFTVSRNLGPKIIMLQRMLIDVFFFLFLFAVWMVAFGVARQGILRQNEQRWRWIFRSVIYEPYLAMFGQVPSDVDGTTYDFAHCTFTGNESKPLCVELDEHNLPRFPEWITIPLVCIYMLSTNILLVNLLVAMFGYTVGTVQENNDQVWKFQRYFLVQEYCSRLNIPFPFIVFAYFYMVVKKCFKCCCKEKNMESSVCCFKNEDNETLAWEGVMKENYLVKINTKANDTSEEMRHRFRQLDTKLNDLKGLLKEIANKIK
Sequence of GPR-55 (Q9Y2T6 whole entry, species assumed): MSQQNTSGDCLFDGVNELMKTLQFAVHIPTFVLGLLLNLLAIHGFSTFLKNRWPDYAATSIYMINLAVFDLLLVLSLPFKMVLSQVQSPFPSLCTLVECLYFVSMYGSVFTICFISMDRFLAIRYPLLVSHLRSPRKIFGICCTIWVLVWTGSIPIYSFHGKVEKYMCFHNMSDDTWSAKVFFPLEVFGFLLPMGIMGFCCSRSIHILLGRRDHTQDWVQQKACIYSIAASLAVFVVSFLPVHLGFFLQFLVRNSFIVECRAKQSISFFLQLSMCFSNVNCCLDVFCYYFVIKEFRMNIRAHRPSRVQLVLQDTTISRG
Sequence of TRPV1′ (Q8NER1 whole entry, species assumed): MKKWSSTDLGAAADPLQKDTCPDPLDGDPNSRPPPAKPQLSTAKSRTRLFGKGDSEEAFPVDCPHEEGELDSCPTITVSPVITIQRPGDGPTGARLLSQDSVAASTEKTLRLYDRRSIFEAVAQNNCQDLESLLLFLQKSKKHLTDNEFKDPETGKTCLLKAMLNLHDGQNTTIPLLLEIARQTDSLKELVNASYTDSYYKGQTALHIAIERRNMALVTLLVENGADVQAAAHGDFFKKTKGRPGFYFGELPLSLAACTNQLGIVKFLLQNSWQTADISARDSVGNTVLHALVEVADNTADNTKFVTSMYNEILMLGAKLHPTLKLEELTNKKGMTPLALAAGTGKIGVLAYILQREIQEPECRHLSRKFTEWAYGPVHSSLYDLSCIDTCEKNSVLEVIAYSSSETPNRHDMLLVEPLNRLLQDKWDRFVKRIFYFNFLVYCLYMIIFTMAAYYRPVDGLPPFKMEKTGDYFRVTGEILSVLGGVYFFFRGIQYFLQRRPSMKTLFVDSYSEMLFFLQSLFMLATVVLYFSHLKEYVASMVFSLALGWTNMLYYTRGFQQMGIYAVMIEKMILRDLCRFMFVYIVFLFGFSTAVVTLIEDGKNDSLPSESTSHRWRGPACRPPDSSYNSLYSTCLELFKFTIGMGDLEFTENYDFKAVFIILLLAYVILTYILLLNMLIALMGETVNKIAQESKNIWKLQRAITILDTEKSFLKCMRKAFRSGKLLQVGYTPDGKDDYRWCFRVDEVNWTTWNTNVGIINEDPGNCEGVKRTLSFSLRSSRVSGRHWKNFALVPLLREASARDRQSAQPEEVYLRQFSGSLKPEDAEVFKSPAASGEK

As to `C=C(C)[C@@H]1CCC(C)=C[C@H]1c1c(O)cc(CCCCC)cc1O` [CBD, cannabidiol], the “COX-2 inhibition, in words” value at COX-2 (compared with CBDa) is given as “not nearly as active”. Also, the “ED50 for the MBS model of epilepsy” value in the series with MBS model of epilepsy [1] is given as 85 mg/kg; in the series on MBS model of epilepsy [2], 89 mg/kg. Also, the response rate in the series on seizures is recorded as roughly 47%. Further, in series [3], the “improvement in BA” value is 10 ×.

In the case of `C=C(C)[C@@H]1CCC(C)=C[C@H]1c1c(O)cc(CCCCC)c(C(=O)O)c1O` [CBDa, cannabidiolic acid], the “COX-1 inhibition, in words” value at COX-1 is on record as “does not inhibit”. Further, the “potency relative to CBD” value in series [4] is 1000-4000 ×. Besides, the “concentration that inhibited COX-2” value on COX-2 was roughly 2 µM. Besides, the “activity at TRPM8” value on TRPM8 is listed as “agonist”. For the same compound, in series [5], the “effect on experimentally induced nausea” value is on record as “suppressed”. Moreover, the “PPARγ binding compared with the corresponding neutral cannabinoid” value at PPARγ is listed as “outperform”. The “effect on GPR-55” value on GPR-55 was “inhibitory effects”. On TRPA1, the “activity at TRPA1” value is “agonist”. Further, in series [6], the “effect on migration of MDA-MB-231 cells” value is given as “inhibit migration”. In addition, the “activity at TRPV1′” value on TRPV1′ is on record as “agonist”. Moreover, the “affinity for 5-HT1A receptors over CBD” value on 5-HT1A receptors is 100 fold.

Regarding `CCCCCc1cc(O)c(C/C=C(\C)CCC=C(C)C)c(O)c1C(=O)O` [CBGa, cannabigerolic acid], the “PPARγ binding compared with the corresponding neutral cannabinoid” value on PPARγ is “outperform”.

For `CCCCCc1cc2c(c(O)c1C(=O)O)[C@@H]1C=C(C)CC[C@H]1C(C)(C)O2` [THCa, tetrahydrocannabinolic acid], the “effect on spread of prostate cancer cells” value in the series on prostate cancer cells is “limit the spread”. Further, the “PPARγ binding compared with the corresponding neutral cannabinoid” value at PPARγ is recorded as “outperform”.
